As usually defined, the IC50 is the concentration at which inhibition is half-maximal.

The first assay deals with T1, human β-secretase (Homo sapiens, UniProt P56817).
T1 construct: The soluble part of the human β-secretase (AA 1-AA 460) was cloned; made in house
T1 sequence (P56817 22-460): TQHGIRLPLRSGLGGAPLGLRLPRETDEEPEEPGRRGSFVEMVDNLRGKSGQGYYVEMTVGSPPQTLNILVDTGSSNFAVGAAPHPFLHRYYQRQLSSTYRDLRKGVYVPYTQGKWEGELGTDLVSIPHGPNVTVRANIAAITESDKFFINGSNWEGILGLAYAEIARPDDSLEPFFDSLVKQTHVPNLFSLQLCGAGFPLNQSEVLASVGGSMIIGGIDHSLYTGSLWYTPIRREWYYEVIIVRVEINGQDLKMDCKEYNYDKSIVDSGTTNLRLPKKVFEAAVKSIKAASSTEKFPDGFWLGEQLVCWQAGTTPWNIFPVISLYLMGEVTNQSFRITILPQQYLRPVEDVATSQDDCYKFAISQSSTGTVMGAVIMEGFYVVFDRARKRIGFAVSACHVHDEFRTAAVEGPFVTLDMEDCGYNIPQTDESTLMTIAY
In words: TR-FRET assay (β-secretase enzyme, sBACE-Fc). Type of assay: biochemical.
Conditions: not given
As for the experimental part:
The enzyme used in the IGEN Cleavage-, Fluorescent-, TR-FRET- and BiaCore assays is described as follows:
The soluble part of the human β-secretase (AA 1-AA 460) was cloned into the ASP2-F10-1-IRES-GFP-neoK mammalian expression vector. The gene was fused to the Fc domain of IgG1 (affinity tag) and stably cloned into HEK 293 cells. Purified sBACE-Fc is stored in Tris buffer, pH 9.2 and has a purity of 95%.
Enzyme was diluted to 6 μg/mL and the substrate (Europium)[…](Qsy7) to 200 nM in reaction buffer (NaAcetate, chaps, triton x-100, EDTA pH 4.5). Compounds were diluted to the desired concentration in dimethyl sulfoxide (final dimethyl sulfoxide concentration in assay is 5%). […] Enzyme (9 μL) and 1 μL of compound in dimethyl sulfoxide was added to the plate, mixed and pre-incubated for 10 min. Substrate (10 μL) was added and the reaction proceeded in the dark for 15 min at RT. The reaction was stopped with the addition of 7 μL NaAcetate, pH 9. […] The dimethyl sulfoxide control defined the 100% activity level and 0% activity was defined by exclusion of the enzyme (using reaction buffer instead).
On the technique in general: TR-FRET usually uses a lanthanide donor and a delayed reading to cut background.
Compound `COc1ccc(C2(c3cccc(-c4cc(OC)cc(OS(C)(=O)=O)c4)c3)N=C(N)N3CCN=C32)cc1` (stereo not drawn) [Example 73, 3′-[5-Amino-7-(4-methoxyphenyl)-2,7-dihydro-3H-imidazo[1,5-a]imidazol-7-yl]-5-methoxybiphenyl-3-yl methanesulfonate acetate] returned an IC50 of 0.19 µM.

The assay is the same for the next values; noted with them: read-out: IC50 in TR-FRET assay.
Consider “4-[5-Amino-7-(3′,5′-dichlorobiphenyl-3-yl)-2,7-dihydro-3H-imidazo[1,5-a]imidazol-7-yl]phenyl methanesulfonate 0.25 acetate [Example 75]”, for which the IC50 worked out at 0.146 µM.
For `COc1cccc(-c2cccc(C3(c4ccc(OS(C)(=O)=O)cc4)N=C(N)N4CCCN=C43)c2)c1` (stereo not drawn) [Example 31, 4-[6-Amino-8-(3′-methoxybiphenyl-3-yl)-2,3,4,8-tetrahydroimidazo[1,5-a]pyrimidin-8-yl]phenyl methanesulfonate acetate], the IC50 amounted to 0.156 µM.
On the same count and under the same terms, with `CS(=O)(=O)Oc1ccc(C2(c3cccc(-c4cnccn4)c3)N=C(N)N3CCCN=C32)cc1` (stereo not drawn) [Example 32, 4-[6-Amino-8-(3-pyrazin-2-ylphenyl)-2,3,4,8-tetrahydroimidazo[1,5-a]pyrimidin-8-yl]phenyl methanesulfonate acetate] the figure was 0.501 µM.
For `CS(=O)(=O)Oc1ccc(C2(c3cccc(-c4cncc(F)c4)c3)N=C(N)N3CCCN=C32)cc1` (stereo not drawn) [Example 33, 4-{6-Amino-8-[3-(5-fluoropyridin-3-yl)phenyl]-2,3,4,8-tetrahydroimidazo[1,5-a]pyrimidin-8-yl}phenyl methanesulfonate acetate], the IC50 worked out at 0.397 µM.
For `COc1cncc(-c2cccc(C3(c4ccc(OS(C)(=O)=O)cc4)N=C(N)N4CCCN=C43)c2)c1` (stereo not drawn) [Example 34, 4-{6-Amino-8-[3-(5-methoxypyridin-3-yl)phenyl]-2,3,4,8-tetrahydroimidazo[1,5-a]pyrimidin-8-yl}phenyl methanesulfonate acetate], the IC50 was 0.161 µM.
On the same count and under the same terms, with `CS(=O)(=O)Oc1ccc(C2(c3cccc(-c4cccc(OC(F)(F)F)c4)c3)N=C(N)N3CCCN=C32)cc1` (stereo not drawn) [Example 41, 4-{6-Amino-8-[3′-(trifluoromethoxy)biphenyl-3-yl]-2,3,4,8-tetrahydroimidazo[1,5-a]pyrimidin-8-yl}phenyl methanesulfonate 0.5 acetate] the figure was 0.981 µM; with `CCOc1cccc(-c2cccc(C3(c4ccc(OS(C)(=O)=O)cc4)N=C(N)N4CCCN=C43)c2)c1` (stereo not drawn) [Example 44, 4-[6-Amino-8-(3′-ethoxybiphenyl-3-yl)-2,3,4,8-tetrahydroimidazo[1,5-a]pyrimidin-8-yl]phenyl methanesulfonate 0.5 acetate], 0.471 µM; with `COc1ccc(C2(c3cccc(-c4cc(OC)cc(OS(C)(=O)=O)c4)c3)N=C(N)N3CCCN=C32)cc1` (stereo not drawn) [Example 52, 3′-[6-Amino-8-(4-methoxyphenyl)-2,3,4,8-tetrahydroimidazo[1,5-a]pyrimidin-8-yl]-5-methoxybiphenyl-3-yl methanesulfonate acetate], 0.043 µM.
On the same count and under the same terms, with `CCCS(=O)(=O)Oc1ccc(C2(c3cccc(-c4cnccn4)c3)N=C(N)N3CCCN=C32)cc1` (stereo not drawn) [Example 54, 4-[6-Amino-8-(3-pyrazin-2-ylphenyl)-2,3,4,8-tetrahydroimidazo[1,5-a]pyrimidin-8-yl]phenyl propane-1-sulfonate acetate] the figure was 0.347 µM; with `CCCS(=O)(=O)Oc1ccc(C2(c3cccc(-c4cccc(OC)c4)c3)N=C(N)N3CCCN=C32)cc1` (stereo not drawn) [Example 55, 4-[6-Amino-8-(3′-methoxybiphenyl-3-yl)-2,3,4,8-tetrahydroimidazo[1,5-a]pyrimidin-8-yl]phenyl propane-1-sulfonate 0.75 acetate], 0.139 µM; with `CCCS(=O)(=O)Oc1ccc(C2(c3cccc(-c4cccc(Cl)c4)c3)N=C(N)N3CCCN=C32)cc1` (stereo not drawn) [Example 57, 4-[6-Amino-8-(3′-chlorobiphenyl-3-yl)-2,3,4,8-tetrahydroimidazo[1,5-a]pyrimidin-8-yl]phenyl propane-1-sulfonate 0.75 acetate], 0.071 µM.
In the case of `CCCS(=O)(=O)Oc1ccc(C2(c3cccc(-c4cccnc4F)c3)N=C(N)N3CCCN=C32)cc1` (stereo not drawn) [Example 59, 4-{6-Amino-8-[3-(2-fluoropyridin-3-yl)phenyl]-2,3,4,8-tetrahydroimidazo[1,5-a]pyrimidin-8-yl}phenyl propane-1-sulfonate acetate], the IC50 is 0.221 µM.
Turning to `CCCS(=O)(=O)Oc1ccc(C2(c3cccc(-c4cccc(C(F)(F)F)c4)c3)N=C(N)N3CCCN=C32)cc1` (stereo not drawn) [Example 60, 4-{6-Amino-8-[3′-(trifluoromethyl)biphenyl-3-yl]-2,3,4,8-tetrahydroimidazo[1,5-a]pyrimidin-8-yl}phenyl propane-1-sulfonate 0.5 acetate], the IC50 amounted to 0.493 µM.
Same read-out and setting: the result for `CCCS(=O)(=O)Oc1ccc(C2(c3cccc(-c4ccc(F)c(OC)c4)c3)N=C(N)N3CCCN=C32)cc1` (stereo not drawn) [Example 61, 4-[6-Amino-8-(4′-fluoro-3′-methoxybiphenyl-3-yl)-2,3,4,8-tetrahydroimidazo[1,5-a]pyrimidin-8-yl]phenyl propane-1-sulfonate 0.75 acetate] reads 0.671 µM; that for `CCCS(=O)(=O)Oc1ccc(C2(c3cccc(-c4cccc(Cl)c4F)c3)N=C(N)N3CCCN=C32)cc1` (stereo not drawn) [Example 62, 4-[6-Amino-8-(3′-chloro-2′-fluorobiphenyl-3-yl)-2,3,4,8-tetrahydroimidazo[1,5-a]pyrimidin-8-yl]phenyl propane-1-sulfonate 0.75 acetate], 0.254 µM.
On to `CCCS(=O)(=O)Oc1ccc(C2(c3cccc(-c4cc(Cl)ccc4Cl)c3)N=C(N)N3CCCN=C32)cc1` (stereo not drawn) [Example 63, 4-[6-Amino-8-(2′,5′-dichlorobiphenyl-3-yl)-2,3,4,8-tetrahydroimidazo[1,5-a]pyrimidin-8-yl]phenyl propane-1-sulfonate 0.75 acetate], for which the IC50 turned out to be 0.912 µM.
Regarding `CCCS(=O)(=O)Oc1ccc(C2(c3cccc(-c4cncc(OC)c4)c3)N=C(N)N3CCCN=C32)cc1` (stereo not drawn) [Example 64, 4-{6-Amino-8-[3-(5-methoxypyridin-3-yl)phenyl]-2,3,4,8-tetrahydroimidazo[1,5-a]pyrimidin-8-yl}phenyl propane-1-sulfonate 0.75 acetate], the IC50 stood at 0.096 µM.
In the case of `COc1cccc(-c2cccc(C3(c4ccc(OS(=O)(=O)C5CC5)cc4)N=C(N)N4CCCN=C43)c2)c1` (stereo not drawn) [Example 65, 4-[6-Amino-8-(3′-methoxybiphenyl-3-yl)-2,3,4,8-tetrahydroimidazo[1,5-a]pyrimidin-8-yl]phenyl cyclopropane sulfonate 0.75 acetate], the IC50 is 0.248 µM.
Regarding `NC1=NC(c2ccc(OS(=O)(=O)C3CC3)cc2)(c2cccc(-c3cc(Cl)cc(Cl)c3)c2)C2=NCCCN12` (stereo not drawn) [Example 66, 4-[6-Amino-8-(3′,5′-dichlorobiphenyl-3-yl)-2,3,4,8-tetrahydroimidazo[1,5-a]pyrimidin-8-yl]phenyl cyclopropanesulfonate 0.75 acetate], the IC50 stood at 0.066 µM.
`NC1=NC(c2ccc(OS(=O)(=O)C3CC3)cc2)(c2cccc(-c3cccc(Cl)c3)c2)C2=NCCCN12` (stereo not drawn) [Example 67, 4-[6-Amino-8-(3′-chlorobiphenyl-3-yl)-2,3,4,8-tetrahydroimidazo[1,5-a]pyrimidin-8-yl]phenyl cyclopropane sulfonate 0.75 acetate]: the IC50 was 0.061 µM.
For the compound `NC1=NC(c2ccc(OS(=O)(=O)C3CC3)cc2)(c2cccc(-c3cccnc3F)c2)C2=NCCCN12` (stereo not drawn) [Example 69, 4-{6-Amino-8-[3-(2-fluoropyridin-3-yl)phenyl]-2,3,4,8-tetrahydroimidazo[1,5-a]pyrimidin-8-yl}phenyl cyclopropane sulfonate 0.75 acetate], the IC50 was 0.313 µM.
The same measure, in the same setting: with `NC1=NC(c2ccc(OS(=O)(=O)C3CC3)cc2)(c2cccc(-c3cccc(C(F)(F)F)c3)c2)C2=NCCCN12` (stereo not drawn) [Example 70, 4-{6-Amino-8-[3′-(trifluoromethyl)biphenyl-3-yl]-2,3,4,8-tetrahydroimidazo[1,5-a]pyrimidin-8-yl}phenyl cyclopropane sulfonate 0.75 acetate] the figure was 0.62 µM; with `NC1=NC(c2ccc(OS(=O)(=O)C3CC3)cc2)(c2cccc(-c3cccc(Cl)c3F)c2)C2=NCCCN12` (stereo not drawn) [Example 71, 4-[6-Amino-8-(3′-chloro-2′-fluorobiphenyl-3-yl)-2,3,4,8-tetrahydroimidazo[1,5-a]pyrimidin-8-yl]phenyl cyclopropane sulfonate 0.75 acetate], 0.39 µM.
For `NC1=NC(c2ccc(OS(=O)(=O)C3CC3)cc2)(c2cccc(-c3cc(Cl)ccc3Cl)c2)C2=NCCCN12` (stereo not drawn) [Example 72, 4-[6-Amino-8-(2′,5′-dichlorobiphenyl-3-yl)-2,3,4,8-tetrahydroimidazo[1,5-a]pyrimidin-8-yl]phenyl cyclopropane sulfonate 0.5 acetate], the IC50 stood at 0.644 µM.
Take `COc1cccc(-c2cccc(C3(c4ccc(OS(C)(=O)=O)cc4)N=C(N)N4CCN=C43)c2)c1` (stereo not drawn) [Example 74, 4-[5-Amino-7-(3′-methoxybiphenyl-3-yl)-2,7-dihydro-3H-imidazo[1,5-a]imidazol-7-yl]phenyl methanesulfonate 0.25 acetate]: the IC50 stood at 0.449 µM.
Still for that read-out and setting: with `CS(=O)(=O)Oc1ccc(C2(c3cccc(-c4cccc(Cl)c4)c3)N=C(N)N3CCN=C32)cc1` (stereo not drawn) [Example 76, 4-[5-Amino-7-(3′-chlorobiphenyl-3-yl)-2,7-dihydro-3H-imidazo[1,5-a]imidazol-7-yl]phenyl methanesulfonate 0.5 acetate] the figure was 0.226 µM.

Source of the values: patent US20080051420A1, “New Compounds 317” (AstraZeneca AB, priority 2006, published 2008).
